Measurements as given in patent US8415305B2, “Use of cyclic depsipeptides to inhibit kallikrein 7” (Novartis AG, priority 2007, dated 2013).

target: human kallikrein 7 (hKallikrein7) (Homo sapiens, UniProt P49862); assay: Kallikrein 7 fluorescence-quenched substrate enzymatic assay (IC50); format: biochemical
Experimental: An “inhibitor” is a cyclic depsipeptide that inhibits an enzymatic reaction with a measure IC50 of less than […], for instance 50 μM, 30 μM, 20 μM or 10 μM. Particularly preferred are cyclic depsipeptides with an IC50 of less than 30 μM for human kallikrein 7, for instance cyclic depsipeptides with an IC50 of less than 10 μM, 1 μM, 100 nM, 50 nM, 40 nM, 30 nM, 20 nM, 10 nM, or less. IC50 for human kallikrein can be measured using the fluorescence-quenched substrate Ac-Glu-Asp(EDANS)-Lys-Pro-lle-Leu-Phe^Arg-Leu-Gly-Lys(DABCYL)-Glu-NH2 (SEQ ID NO 1) (where ^ indicates the scissile bond, identified by MS analysis) which can be purchased from Biosyntan (Berlin, Germany). Enzymatic reactions are conducted in 50 mM sodium citrate buffer at pH 5.6 containing 150 mM NaCl and 0.05% (w/v) CHAPS. For the determination of IC50 values the assay is performed at room temperature in 384-well plates. All final assay volumes are 30 μl. Test compounds are dissolved in 90% (v/v) DMSO/water and diluted in water (containing 0.05% (w/v) CHAPS) to 3-times the desired assay concentration. The 11 final compound concentrations are: 0.3 nM, 1 nM, 3 nM, 10 nM, 30 nM, 100 nM, 300 nM, 1 μM, 3 μM, 10 μM and 30 μM. For each assay, 10 μl water/CHAPS (±test compound) are added per well, followed by 10 μl protease solution (diluted with 1.5× assay buffer). The protease concentration in final assay solution is 0.2 nM (according to the enzyme concentrations determined by the Bradford method). After 1 hour of incubation at room temperature, the reaction is started by addition of 10 μl substrate solution (substrate dissolved in 1.5× assay buffer, final concentration is 2 μM). The effect of the compound on the enzymatic activity is obtained from the linear progress curves and determined from two readings, the first one taken directly after the addition of substrate (t=0 min) and the second one after 1 hour (t=60 min). The IC50 value is calculated from the plot of percentage of inhibition vs. inhibitor concentration using non-linear regression analysis software (XLfit, Vers. 4.0; ID Business Solution Ltd., Guildford, Surrey, UK).
The fluorescence-quenched substrate Ac-Glu-Asp(EDANS)-Lys-Pro-lle-Leu-Phe^Arg-Leu-Gly-Lys(DABCYL)-Glu-NH2 (SEQ ID NO1) (where ^ indicates the scissile bond, identified by MS analysis) is purchased from Biosyntan (Berlin, Germany) and kept as a 5 mM stock solution in DMSO at −20° C. All other chemicals are of analytical grade. […]
For fluorescence intensity (FI) measurements an Ultra Evolution reader (TECAN, Maennedorf, Switzerland) is used. The instrument is equipped with a combination of a 350 nm (20 nm bandwidth) and a 500 nm (25 nm bandwidth) bandpath filter for fluorescence excitation and emission acquisition, respectively. […]

Chain of human kallikrein 7 (hKallikrein7) (P49862 30-253): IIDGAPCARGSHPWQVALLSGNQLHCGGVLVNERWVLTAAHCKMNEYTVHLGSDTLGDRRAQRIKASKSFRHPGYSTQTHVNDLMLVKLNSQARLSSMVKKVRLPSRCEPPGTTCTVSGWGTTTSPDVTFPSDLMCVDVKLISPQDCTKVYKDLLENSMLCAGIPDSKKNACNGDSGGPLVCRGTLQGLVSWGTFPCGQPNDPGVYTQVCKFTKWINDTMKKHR

Q: Which IC50 does the source give for `CCC(C)[C@@H]1NC(=O)[C@H](Cc2ccc(O)cc2)N(C)C(=O)[C@H](C(C)CC)N2C(=O)C(CC[C@@H]2O)NC(=O)[C@H](CC(C)C)NC(=O)[C@H](NC(=O)[C@H](CCC(N)=O)NC(=O)C(C)C)[C@@H](C)OC1=O` (stereo partly shown) [formula (II)] here?
A: Its IC50 is 1 nM.

Q: `CCC(C)C(=O)N[C@@H](CCC(N)=O)C(=O)N[C@H]1C(=O)N[C@@H](CC(C)C)C(=O)N[C@H]2CC=CN(C2=O)[C@@H](C(C)CC)C(=O)N(C)[C@@H](Cc2ccc(O)cc2)C(=O)N[C@@H](C(C)CC)C(=O)O[C@@H]1C` (stereo partly shown) [formula (IV)] was tested. Which IC50 did it give?
A: The IC50 was 5 nM.

Q: Which IC50 does the source give for `CCC(C)C(=O)N[C@@H](CCC(N)=O)C(=O)NC1C(=O)N[C@@H](CC(C)C)C(=O)NC2CC[C@H](O)N(C2=O)[C@@H](C(C)CC)C(=O)N(C)[C@@H](Cc2ccc(O)cc2)C(=O)N[C@@H](C(C)CC)C(=O)O[C@@H]1C` (stereo partly shown) [formula (III)] here?
A: Its IC50 is 0.4 nM.

Q: Which IC50 does the source give for `CCC(C)[C@@H]1NC(=O)[C@H](Cc2ccc(O)cc2)N(C)C(=O)[C@H](C(C)CC)N2C=CC[C@H](NC(=O)[C@H](CC(C)C)NC(=O)[C@H](NC(=O)[C@H](CCC(N)=O)NC(=O)C(C)C)[C@@H](C)OC1=O)C2=O` (stereo partly shown) [formula (V)] here?
A: The IC50 was 6 nM.
